# According to patent publication EP2558096B1, “COMBINATION OF HYPOXIA-INDUCIBLE FACTOR-1 INHIBITORS AND TOLL-LIKE RECEPTOR-3 AGONISTS FOR TREATING SOLID TUMORS” (Università degli Studi di Roma "La Sapienza", priority 2010, dated 2011):
# Where two headings read alike, the source gives them in different places. *1 amine or outer side, *2 acyl side, *3 side chain or, on linkers, in order; H or OH if unused. Where a SMILES comes first, the peptide text is derived from it. Bridges are numbered along the chain shown (N, C = ends). Roman numbers before positions name the chains, in order. [ ]: non-standard residue; d: D form. The star is where a group is joined. Actinocin(9to1) = Cc1c2oc3c(C)ccc(C(=O)[*:1])c3nc-2c(C(=O)[*:2])c(N)c1=O; NMeV = CN[C@H](C(=O)O)C(C)C; Cbz = O=C(OCc1ccccc1)*; Sar = CNCC(=O)O
# System: HIF-1α
# Assay: Western blot of HIF-1α protein in PC3 cells (whole cell and nuclear extracts)
# Format: cell-based, human
# Procedure: LNCaP and PC3 prostate cancer cells were purchased from ATCC and were grown in DME medium supplemented with 2 mM L-glutamine, 100 IU/ml penicillin-streptomycin and 10% FCS (Sigma-Aldrich, St Louis, MO). For all the experiments, prostate cancer cell lines were serum starved for 18 h and then stimulated with poly(I:C) (InvivoGen, San Diego) in FCS-free medium. Human Umbilical Vein Endothelial Cells (HUVEC) were maintained in EGM®-2 complete medium (Lonza, Basel, Switzerland). Actinomycin D, cycloheximide and CoCl2 were from Sigma. MG-132 was from Calbiochem-Merk (Damstadt, Germany).
# Cell lysates were prepared in cell lysis buffer (Cell Signaling, Danvers, MA). Equal amounts of proteins (40 µg) were subjected to SDS-polyacrylamide gel electrophoresis and transferred onto a nitrocellulose membrane saturated with 5% non-fat dry milk in Tris-buffered saline with 0.1% Tween-20 (T-TBS). Membranes were incubated with primary antibody and subsequently with horseradish peroxidase-conjugated (HRP) secondary antibody for 1 h at room temperature. Membranes were washed with T-TBS and developed using the chemiluminescence system (ECL; Amersham Bioscience, Piscataway, NJ). Antibody anti-HIF-1α was from BD biosciences (San Diego, CA), cleaved caspase-3 (Asp175) from Cell Signalling (Danvers, MA) and anti-β actin from Sigma. Secondary antibodies were HRP-conjugated goat anti-mouse or anti-rabbit (Bio-Rad, Hercules, CA). To perform Western blot of nuclear extracts, cells were washed in ice-cold PBS, scraped and collected in buffer A (10 mM Tris, pH 7.8, 1.5 Mm MgC12, and 10 mM KCl), and kept on ice for 10 min. before Dounce homogenization. Nuclei were then pelleted at 1000 g for 7 min. at 4°C, re-suspended in 150 µl ice-cold lysis buffer and incubated for 30 min. on ice in the presence of proteases inhibitor cocktail (Sigma) then stored at -80°C. Protein concentration was determined by the micro bicinchoninic acid (BCA) method (Pierce, Rockford, IL).
# One day after plating (1 x 10^5 cells/ml), cells were transiently transfected with 1 µg of a plasmid encoding 1.3 isoform of hif-1α [6] or relative control plasmid (pcDNA3) or with 1 µg of a plasmid containing an interfering sequence targeting hif-1α (int.HIF-1α) or the relative control (int. scramble) previously described. Cells were transfected for 5 h with lipofectamine LTX/plus (Invitrogen, Carlsbad, CA) according to the manufacturer's protocol. Challenge with poly(I:C) was performed 18 h later.
# To obtain stably transfected PC3 cells with non-functional TLR3, cells were transfected with 1 µg TLR3-dominant negative plasmid (TLR3-DN) (pZERO-hTLR3, Invivogen) or with 1 µg plasmid containing only the resistance to puromycin (pPURO), using lipofectamine LTX/plus as described above. 48 h later, the cells were trypsinized, and seeded at different dilutions onto 100-mm plates in complete DMEM supplemented with 2 µg/ml puromycin (Invivogen). After incubation at 37°C for 2 to 3 weeks, individual colonies were isolated using sterile cloning rings, trypsinized and plated onto 12-well plates. The clones obtained were expanded and maintained in DMEM supplemented with 2 µg/ml puromycin.
structure (smiles),measurement,setting,value
"C[C@@H]1C[C@@H]([C@H](O)CC2CC(=O)NC(=O)C2)C(=O)[C@@H](C)C1 [CHX, cycloheximide]",effect on HIF-1α increase by CoCl2 combined with MG-132,,not significantly inhibited
same,effect on HIF-1α increase by poly(I:C) in MG-132-treated cells,,reverted the increase to the level of MG-132 alone
same,effect on HIF-1α protein accumulation in cells treated with CoCl2,,did not inhibit
same,effect on poly(I:C)-dependent HIF-1α protein induction,,completely abolished
"Cc1c2oc3c(C)ccc(C(=O)N[C@@H]4C(=O)N[C@H](C(C)C)C(=O)N5CCC[C@H]5C(=O)N(C)CC(=O)N(C)[C@@H](C(C)C)C(=O)O[C@@H]4C)c3nc-2c(C(=O)N[C@@H]2C(=O)N[C@H](C(C)C)C(=O)N3CCC[C@H]3C(=O)N(C)CC(=O)N(C)[C@@H](C(C)C)C(=O)O[C@@H]2C)c(N)c1=O [Act D, actinomycin D] (I: T[dV]P[Sar][NMeV] / II: T[dV]P[Sar][NMeV]; ester I:1-I:C, II:1-II:C; linker I:N-II:N via Actinocin(9to1))",effect on HIF-1α protein accumulation in cells treated with CoCl2,"PC3 cells, 100 µM CoCl2 3 h, Fig. 2B upper",did not inhibit
same,effect on poly(I:C)-dependent HIF-1α protein induction,"PC3 cells, poly(I:C) 5 µg/ml about 6 h, inhibitor for 15 min (CHX 100 µg/ml, Act D 2 µg/ml), Fig. 2B upper",completely abolished
CC(C)C[C@@H](C=O)NC(=O)[C@H](CC(C)C)NC(=O)[C@H](CC(C)C)NC(=O)OCc1ccccc1 [MG-132] (Cbz-Leu-Leu-Leu-aldehyde),level of HIF-1α in the absence of poly(I:C),"PC3 cells, 5 µg/ml MG-132, 3 h, Fig. 2B lower",induced an increase
same,HIF-1α compared to CoCl2 alone,"PC3 cells, CoCl2 combined with MG-132, Fig. 2B lower",greater increment
